Among the data in patent publication US9944646B2, “Bicyclic azaheterocyclobenzylamines as PI3K inhibitors” (Incyte Corporation, priority 2012, dated 2018) are IC50 values, retold here.

For orientation: IC50 means the concentration that inhibits the measured activity by half. Low readings indicate higher potency, high ones lower potency.

Where a name gives a salt, the structure may show the parent alone.

In one assay the test system is SUDHL-6 cells. The experiment in a line: SUDHL-6 Cell Proliferation Assay (Example B3). To be noted: 3 days, Cell Titer-GLO. In kind it is cell-based. As to the method: Example B3: SUDHL-6 Cell Proliferation Assay
SUDHL-6 cell line (diffuse large B cell lymphoma) was purchased from ATCC (Manassas, Va.) and maintained in the culture medium recommended (RPMI and 10% FBS). To measure the anti-proliferation activity of the compounds through ATP quantitation, the SUDHL-6 cells was plated with the culture medium (5000 cells/well/per 200 μl) into 96-well polystyrene clear black tissue culture plate (Greiner-bio-one through VWR, NJ) in the presence or absence of a concentration range of test compounds. After 3 days, Cell Titer-GLO Luminescent (Promega, Madison, Wis.) cell culture agent was added to each well for 10 minutes at room temperature to stabilize the luminescent signal. This determines the number of viable cells in culture based on quantitation of the ATP present, which signals the presence of metabolically active cells. Luminescence was measured with the TopCount 384 (Packard Bioscience through Perkin Elmer, Boston, Mass.). […] IC50 data for the Examples is presented in Table 4 determined by the assay of Example B3.
(Cellular ATP, detected with luciferase, serves as a proxy for viable cell number.)

The next assay has as its target PI3Kδ (Homo sapiens (Human), UniProt O00329). The experiment in a line: PI3K Enzyme Assay (Example A2), [γ-33P]ATP filter plate. The assay is classed as biochemical. The gist of the method:
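Recombinant PI3Kδ at 2.9 nM with 50 µM PIP2 in MOPS pH 6.7, MgCl2, DTT, CHAPS, 0.5% DMSO; started with 1000 μM ATP including [γ-33P]ATP, 180 min at room temperature. Phosphorylated product captured on PVDF filter plates and scintillation-counted; IC50 from percent-control activity vs log concentration.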

The target of another assay is PI3Kδ (p110δ/p85α) (Homo sapiens (Human), UniProt O00329). The experiment in a line: PI3Kδ Scintillation Proximity Assay (Example A3). The assay is classed as biochemical. The source says:
Example A3: PI3Kδ Scintillation Proximity Assay
[γ-^33P]ATP (10 mCi/mL) was purchased from Perkin-Elmer (Waltham, Mass.). Lipid kinase substrate, D-myo-Phosphatidylinositol 4,5-bisphosphate (PtdIns(4,5)P2)D (+)-sn-1,2-di-O-octanoylglyceryl, 3-O-phospho linked (PIP2), CAS 204858-53-7, was purchased from Echelon Biosciences (Salt Lake City, Utah). PI3Kδ (p110δ/p85α) was purchased from Millipore (Bedford, Mass.). ATP, MgCl2, DTT, EDTA, MOPS and CHAPS were purchased from Sigma-Aldrich (St. Louis, Mo.). Wheat Germ Agglutinin (WGA) YSi SPA Scintillation Beads was purchased from GE healthcare life sciences (Piscataway, N.J.).
The kinase reaction was conducted in polystyrene 384-well matrix white plate from Thermo Fisher Scientific in a final volume of 25 μL. Inhibitors were first diluted serially in DMSO and added to the plate wells before the addition of other reaction components. The final concentration of DMSO in the assay was 0.5%. The PI3K assays were carried out at room temperature in 20 mM MOPS, pH 6.7, 10 mM MgCl2, 5 mM DTT and CHAPS 0.03%. Reactions were initiated by the addition of ATP, the final reaction mixture consisted of 20 µM PIP2, 20 µM ATP, 0.2 μCi [γ-^33P]ATP, 4 nM PI3Kδ. Reactions were incubated for 210 min and terminated by the addition of 40 μL SPA beads suspended in quench buffer: 150 mM potassium phosphate pH 8.0, 20% glycerol. 25 mM EDTA, 400 µM ATP. The final concentration of SPA beads was 1.0 mg/mL. After the plate sealing, plates were shaken overnight at room temperature and centrifuged at 1800 rpm for 10 minutes, the radioactivity of the product was determined by scintillation counting on Topcount (Perkin-Elmer). IC50 determination was performed by fitting the curve of percent control activity versus the log of the inhibitor concentration using the GraphPad Prism 3.0 software. […] IC50 data for Examples 1-25 is presented in Table 3 for PI3Kδ as determined by the assay of Example A2 or A3 as indicated

Sequence of PI3Kδ (p110δ/p85α) (O00329 whole entry): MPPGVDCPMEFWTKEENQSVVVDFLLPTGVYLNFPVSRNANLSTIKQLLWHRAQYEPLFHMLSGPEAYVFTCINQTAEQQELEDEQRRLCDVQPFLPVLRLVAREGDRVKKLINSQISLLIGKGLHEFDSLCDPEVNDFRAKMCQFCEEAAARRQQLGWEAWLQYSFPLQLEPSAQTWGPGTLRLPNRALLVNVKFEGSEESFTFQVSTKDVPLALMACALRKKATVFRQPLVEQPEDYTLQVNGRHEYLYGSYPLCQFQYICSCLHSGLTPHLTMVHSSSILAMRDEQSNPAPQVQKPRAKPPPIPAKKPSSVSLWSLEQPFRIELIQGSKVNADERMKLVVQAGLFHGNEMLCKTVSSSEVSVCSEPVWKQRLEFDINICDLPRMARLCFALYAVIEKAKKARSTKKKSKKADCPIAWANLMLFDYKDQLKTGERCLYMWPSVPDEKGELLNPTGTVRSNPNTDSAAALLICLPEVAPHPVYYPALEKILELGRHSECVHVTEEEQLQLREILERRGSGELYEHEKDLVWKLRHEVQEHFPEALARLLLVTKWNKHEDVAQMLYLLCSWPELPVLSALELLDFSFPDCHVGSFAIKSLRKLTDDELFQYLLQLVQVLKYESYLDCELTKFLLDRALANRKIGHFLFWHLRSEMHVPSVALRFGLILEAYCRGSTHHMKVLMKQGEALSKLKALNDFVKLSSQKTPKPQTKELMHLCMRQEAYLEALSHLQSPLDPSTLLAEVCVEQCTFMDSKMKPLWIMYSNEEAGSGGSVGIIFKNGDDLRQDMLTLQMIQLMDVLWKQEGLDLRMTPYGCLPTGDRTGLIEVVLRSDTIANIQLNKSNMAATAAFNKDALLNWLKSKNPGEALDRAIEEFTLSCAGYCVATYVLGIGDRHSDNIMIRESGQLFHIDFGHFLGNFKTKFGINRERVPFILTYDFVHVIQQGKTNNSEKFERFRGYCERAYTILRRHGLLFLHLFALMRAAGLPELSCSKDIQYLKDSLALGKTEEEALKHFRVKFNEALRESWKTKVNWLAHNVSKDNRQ
Sequence of PI3Kδ (p110δ/p85α) (P27986 whole entry partner): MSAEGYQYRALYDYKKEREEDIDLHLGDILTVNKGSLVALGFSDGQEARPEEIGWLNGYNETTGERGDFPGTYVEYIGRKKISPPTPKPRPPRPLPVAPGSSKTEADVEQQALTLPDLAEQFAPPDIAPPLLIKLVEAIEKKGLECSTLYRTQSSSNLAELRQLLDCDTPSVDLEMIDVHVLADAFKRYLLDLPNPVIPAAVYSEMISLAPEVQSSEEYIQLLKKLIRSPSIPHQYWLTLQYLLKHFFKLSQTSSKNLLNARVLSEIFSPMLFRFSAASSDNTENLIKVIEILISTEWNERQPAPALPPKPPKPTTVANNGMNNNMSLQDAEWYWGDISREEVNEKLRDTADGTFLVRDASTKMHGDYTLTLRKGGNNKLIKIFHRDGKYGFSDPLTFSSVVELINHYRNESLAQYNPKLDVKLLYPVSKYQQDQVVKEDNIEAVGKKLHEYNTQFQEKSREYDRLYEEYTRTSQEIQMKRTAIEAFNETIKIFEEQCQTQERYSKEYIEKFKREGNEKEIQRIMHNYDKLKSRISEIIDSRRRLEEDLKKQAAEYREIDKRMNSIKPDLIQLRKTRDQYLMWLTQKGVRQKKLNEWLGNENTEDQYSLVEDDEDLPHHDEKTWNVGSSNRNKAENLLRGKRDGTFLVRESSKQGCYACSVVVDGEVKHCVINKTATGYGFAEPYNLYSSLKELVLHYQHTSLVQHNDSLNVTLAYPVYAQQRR
Sequence of PI3Kδ (O00329 whole entry): as the sequence (O00329 whole entry) above
Sequence of PI3Kδ (P27986 whole entry partner): as the sequence (P27986 whole entry partner) above

`Cc1nn(C(C)c2cc(Cl)c(F)c3c2OC(C)CN(S(C)(=O)=O)C3)c2ncnc(N)c12` (single isomer, unassigned) [Example 37, 1-{1-[7-Chloro-6-fluoro-2-methyl-4-(methylsulfonyl)-2,3,4,5-tetrahydro-1,4-benzoxazepin-9-yl]ethyl}-3-methyl-1H-pyrazolo[3,4-d]pyrimidin-4-amine]: the 50% inhibitory concentration (IC50) in the assay with SUDHL-6 cells (Homo sapiens, SU-DHL-6, 72 h) was not above 500 nM; at PI3Kδ, not above 100 nM.

For the compound `CC(=O)N1CC(N2Cc3c(F)c(Cl)cc(C(C)n4nc(C)c5c(N)ncnc54)c3OC(C)C2)C1` (single isomer, unassigned) [Example 29, 1-{1-[4-(1-Acetylazetidin-3-yl)-7-chloro-6-fluoro-2-methyl-2,3,4,5-tetrahydro-1,4-benzoxazepin-9-yl]ethyl}-3-methyl-1H-pyrazolo[3,4-d]pyrimidin-4-amine], the half-inhibitory concentration (IC50) in the assay on SUDHL-6 cells is not above 500 nM; at PI3Kδ, not above 100 nM. `Cc1nn(C(C)c2cc(Cl)c(F)c3c2OC(C)CN(S(C)(=O)=O)C3)c2ncnc(N)c12` (single isomer, unassigned) [Example 40, 1-{1-[7-Chloro-6-fluoro-2-methyl-4-(methylsulfonyl)-2,3,4,5-tetrahydro-1,4-benzoxazepin-9-yl]ethyl}-3-methyl-1H-pyrazolo[3,4-d]pyrimidin-4-amine]: the IC50 in the assay with SUDHL-6 cells is not above 500 nM; at PI3Kδ it was not above 100 nM. With `Cc1c(Cl)cc(C(C)n2nc(C)c3c(N)ncnc32)c2c1CN(c1ncc(C#N)s1)CCO2` (stereo not drawn) [Example 23, 2-[9-[1-(4-Amino-3-methyl-1H-pyrazolo[3,4-d]pyrimidin-1-yl)ethyl]-7-chloro-6-methyl-2,3-dihydro-1,4-benzoxazepin-4(5H)-yl]-1,3-thiazole-5-carbonitrile trifluoroacetate], the IC50 against PI3Kδ (p110δ/p85α) is not above 100 nM. The same measure, in the same setting: as for `Cc1c(Cl)cc(C(C)n2nc(C)c3c(N)ncnc32)c2c1CN(CC#N)CCO2` (stereo not drawn) [Example 11, [9-[1-(4-Amino-3-methyl-1H-pyrazolo[3,4-d]pyrimidin-1-yl)ethyl]-7-chloro-6-methyl-2,3-dihydro-1,4-benzoxazepin-4(5H)-yl]acetonitrile bis(trifluoroacetate)], the figure is not above 100 nM. `Cc1c(Cl)cc(C(C)n2nc(C)c3c(N)ncnc32)c2c1CN(C(=O)c1ccccc1)CCO2` (stereo not drawn) [Example 16, 1-[1-(4-Benzoyl-7-chloro-6-methyl-2,3,4,5-tetrahydro-1,4-benzoxazepin-9-yl)ethyl]-3-methyl-1H-pyrazolo[3,4-d]pyrimidin-4-amine trifluoroacetate] returned an IC50 against PI3Kδ (p110δ/p85α) not above 100 nM.

Regarding `Cc1c(Cl)cc(C(C)n2nc(C)c3c(N)ncnc32)c2c1CN(C1CCC1)CCO2` (stereo not drawn) [Example 5, 1-[1-(7-Chloro-4-cyclobutyl-6-methyl-2,3,4,5-tetrahydro-1,4-benzoxazepin-9-yl)ethyl]-3-methyl-1H-pyrazolo[3,4-d]pyrimidin-4-amine bis(trifluoroacetate)], the IC50 on PI3Kδ (p110δ/p85α) is not above 100 nM. Turning to `CCC(=O)N1CCOc2c(C(C)n3nc(C)c4c(N)ncnc43)cc(Cl)c(C)c2C1` (stereo not drawn) [Example 20, 1-[1-(7-Chloro-6-methyl-4-propionyl-2,3,4,5-tetrahydro-1,4-benzoxazepin-9-yl)ethyl]-3-methyl-1H-pyrazolo[3,4-d]pyrimidin-4-amine trifluoroacetate], the concentration for half-maximal inhibition (IC50) at PI3Kδ (p110δ/p85α) was not above 100 nM. As for `CC(=O)N1CC(N2Cc3c(C#N)c(Cl)cc(C(C)n4nc(C)c5c(N)ncnc54)c3OC(C)C2)C1` (single isomer, unassigned) [Example 49, 4-(1-Acetylazetidin-3-yl)-9-[1-(4-amino-3-methyl-1H-pyrazolo[3,4-d]pyrimidin-1-yl)ethyl]-7-chloro-2-methyl-2,3,4,5-tetrahydro-1,4-benzoxazepine-6-carbonitrile], the half-maximal inhibitory concentration (IC50) in the assay with SUDHL-6 cells is not above 500 nM; on PI3Kδ, not above 100 nM. The compound `CC(=O)N1CCOc2c(C(C)n3nc(C)c4c(N)ncnc43)cc(Cl)c(C)c2C1` (stereo not drawn) [Example 19, 1-[1-(4-Acetyl-7-chloro-6-methyl-2,3,4,5-tetrahydro-1,4-benzoxazepin-9-yl)ethyl]-3-methyl-1H-pyrazolo[3,4-d]pyrimidin-4-amine trifluoroacetate] yielded a half-inhibitory concentration (IC50) on PI3Kδ (p110δ/p85α) not above 100 nM. In the case of `Cc1c(Cl)cc(C(C)n2nc(C)c3c(N)ncnc32)c2c1CN(S(=O)(=O)C1CC1)CCO2` (stereo not drawn) [Example 18, 1-{1-[7-Chloro-4-(cyclopropylsulfonyl)-6-methyl-2,3,4,5-tetrahydro-1,4-benzoxazepin-9-yl]ethyl}-3-methyl-1H-pyrazolo[3,4-d]pyrimidin-4-amine trifluoroacetate], the IC50 on PI3Kδ (p110δ/p85α) was not above 100 nM. Turning to `Cc1noc(C)c1S(=O)(=O)N1CCOc2c(C(C)n3nc(C)c4c(N)ncnc43)cc(Cl)c(C)c2C1` (stereo not drawn) [Example 17, 1-(1-{7-Chloro-4-[(3,5-dimethylisoxazol-4-yl)sulfonyl]-6-methyl-2,3,4,5-tetrahydro-1,4-benzoxazepin-9-yl}yl)ethyl)-3-methyl-1H-pyrazolo[3,4-d]pyrimidin-4-amine trifluoroacetate], at PI3Kδ (p110δ/p85α), the concentration for half-maximal inhibition (IC50) is not above 100 nM.

Take `Cc1c(Cl)cc(C(C)n2nc(C)c3c(N)ncnc32)c2c1CN(S(C)(=O)=O)CCO2` (stereo not drawn) [Example 13, 1-{1-[7-Chloro-6-methyl-4-(methylsulfonyl)-2,3,4,5-tetrahydro-1,4-benzoxazepin-9-yl]ethyl}-3-methyl-1H-pyrazolo[3,4-d]pyrimidin-4-amine trifluoroacetate]: the half-inhibitory concentration (IC50) against PI3Kδ (p110δ/p85α) is not above 100 nM. Consider `Cc1nn(C(C)c2cc(Cl)c(C#N)c3c2OC(C)CN(CCO)C3)c2ncnc(N)c12` (single isomer, unassigned) [Example 62, 9-[1-(4-Amino-3-methyl-1H-pyrazolo[3,4-d]pyrimidin-1-yl)ethyl]-7-chloro-4-(2-hydroxyethyl)-2-methyl-2,3,4,5-tetrahydro-1,4-benzoxazepine-6-carbonitrile], for which the IC50 with SUDHL-6 cells (Homo sapiens, SU-DHL-6, 72 h) was not above 500 nM; at PI3Kδ, not above 100 nM. Turning to `Cc1c(Cl)cc(C(C)n2nc(C)c3c(N)ncnc32)c2c1CN(S(=O)(=O)c1ccccc1)CCO2` (stereo not drawn) [Example 14, 1-{1-[7-Chloro-6-methyl-4-(phenylsulfonyl)-2,3,4,5-tetrahydro-1,4-benzoxazepin-9-yl]ethyl}-3-methyl-1H-pyrazolo[3,4-d]pyrimidin-4-amine trifluoroacetate], the IC50 on PI3Kδ (p110δ/p85α) was not above 100 nM. Regarding `Cc1c(Cl)cc(C(C)n2nc(C)c3c(N)ncnc32)c2c1CN(C(=O)C(C)C)CCO2` (stereo not drawn) [Example 22, 1-[1-(7-Chloro-4-isobutyryl-6-methyl-2,3,4,5-tetrahydro-1,4-benzoxazepin-9-yl)ethyl]-3-methyl-1H-pyrazolo[3,4-d]pyrimidin-4-amine trifluoroacetate], the IC50 on PI3Kδ (p110δ/p85α) was not above 100 nM. Take `CC(=O)N1CC(N2Cc3c(F)c(Cl)cc(C(C)n4nc(C)c5c(N)ncnc54)c3OC(C)C2)C1` (single isomer, unassigned) [Example 28, 1-{1-[4-(1-Acetylazetidin-3-yl)-7-chloro-6-fluoro-2-methyl-2,3,4,5-tetrahydro-1,4-benzoxazepin-9-yl]ethyl}-3-methyl-1H-pyrazolo[3,4-d]pyrimidin-4-amine]: the IC50 with SUDHL-6 cells (Homo sapiens, SU-DHL-6, 72 h) was not above 500 nM; at PI3Kδ, not above 100 nM.

With `Cc1c(Cl)cc(C(C)n2nc(C)c3c(N)ncnc32)c2c1CN(C1CN(C(=O)OC(C)(C)C)C1)CCO2` (stereo not drawn) [Example 3, tert-Butyl 3-[9-[1-(4-amino-3-methyl-1H-pyrazolo[3,4-d]pyrimidin-1-yl)ethyl]-7-chloro-6-methyl-2,3-dihydro-1,4-benzoxazepin-4(5H)-yl]azetidine-1-carboxylate], on PI3Kδ (p110δ/p85α), the half-maximal inhibitory concentration (IC50) is not above 100 nM.
